Experimental data taken from patent US4677131.

assay: shake-flask (equal volumes, stirred); both phases assayed by HPLC; settings: 32 °C

Going from `CCCCCCCCCCN1CCN(C)C1=O` to `CCCCCCCCCCCCN1CCN(C)C1=O`, the “partition coefficient iso-octane / distilled water” value rises from 756 concentration ratio to 7350 concentration ratio.

First: CCCCCCCN1CCN(C)C1=O
Second: CCCCCCCCCCCCN1CCCCCC1=O
The “partition coefficient iso-octane / distilled water” value of the first is lower: 24 concentration ratio for the first, 2004 concentration ratio for the second.
